Laboratory results as given in patent US11440923B2, “Substituted macrocyclic indole derivatives” (Bayer Aktiengesellschaft, priority 2017, dated 2022).
Where a name gives a salt, the structure may show the parent alone. Read-outs that look alike come from different tables or passages of the source.

What was measured:
BCL-2 = BCL-2 (Homo sapiens (Human), UniProt P10415); assay: Protein-protein interaction assay BCL-2/Bad BH3 peptide (BCL-2 assay, TR-FRET); type: binding; settings: read-out: BCL-2 Assay IC50 (median)
Method: Assay 3 Protein-Protein Interaction Assay: BCL-2/Bad BH3 Peptide (BCL-2 Assay)
The dose-dependent inhibition by the compounds described in this invention of the interaction between BCL-2 and the BH3 domain of Bad (both human) was determined using a steady state binding competition assay with time-resolved fluorescence energy transfer (TR-FRET) readout. For that purpose BCL-2 (amino acids 1-211, C-terminal fused to a hexahistidine (6×His) tag (SEQ ID 5) and a synthetic Bad BH3-derived peptide of sequence Biotin-PEG2-PEG2-[…]-Nle-[…]-amide (SEQ ID 4) served as protein receptor and tracer ligand respectively. The recombinant BCL-2 protein (expressed in E. coli) was purchased from BPS Bioscience (San Diego, Calif., USA). The Bad BH3-derived peptide can be obtained from e.g. Biosyntan (Berlin, Germany).
In the assay 11 different concentrations of each compound (0.1 nM, 0.33 nM, 1.1 nM, 3.8 nM, 13 nM, 44 nM, 0.15 μM, 0.51 μM, 1.7 μM, 5.9 μM and 20 μM) were typically measured as duplicates in the same microtiter plate. For that, 100-fold concentrated DMSO solutions were prepared by serial dilutions (1:3.4) of a 2 mM stock solution in a clear, 384-well microtiter plate (Greiner Bio-One, Frickenhausen, Germany). From there, 50 nl were transferred in a dark test plate (Greiner Bio-One, Frickenhausen, Germany). The assay was initiated by addition of 2 μL of a 2,5-fold concentrated His-BCL-2 solution (usually for a 1 nM end concentration in 5 μL reaction volume) in aqueous assay buffer [50 mM Tris/HCl pH 7, 100 mM sodium chloride (NaCl), 50 mM potassium fluoride (KF), 0.005% Tween-20, 2 mM DTT, 0.1% bovine gamma globulin (BGG)] to the compounds in the assay plate. This was followed by a 10-minute incubation step at 22° C. for pre-equilibration of the putative complex between His-BCL-2 and the compounds. After that, 3 μL of a 1.67-fold concentrated solution (in assay buffer) consisting of Bad BH3-derived peptide (1 nM end concentration) and TR-FRET detection reagents [1.67 nM anti-His-Eu cryptate and 1.67 nM streptavidin-XL665 (both from Cisbio Bioassays, Codolet, France)], were added.
The mixture was incubated in the dark for one hour at 22° C. and then overnight at 4° C. The formation of BCL-2/Bad complexes was determined by measuring the resonance energy transfer of the anti-His-Eu-cryptate antibody to the streptavidin-XL665 present in the reaction. For that purpose, the fluorescence emission at 620 nm and 665 nm after excitation at 330-350 nm was measured in a TR-FRET measuring instrument, for instance a Rubystar or a Pherastar (both from BMG Lab Technologies, Offenburg, Germany) or a Viewlux (Perkin-Elmer). The ratio of the emission at 665 nm and at 622 nm was used as indicator of the amount of BCL-2/Bad complexes present.
The resulting data (ratio) were normalized, taking 0% inhibition as the mean value of control measurements (usually 32 data points) where all reagents were included. In this case 50 nl DMSO were used instead of compounds. […] IC50 values were determined by regression analysis based on a 4 parameter equation (minimum, maximum, IC50, Hill; Y=Max+(Min−Max)/(1+(X/IC50)^Hill) using the Screener Software (Genedata).

SUDHL10 cells = assay: Induction of caspase-3/7 activity in SUDHL10 cells (Assay 4); type: cell-based
Procedure, shortened: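 Read-out: Caspase-Glo 3/7 luminescence (1 h, 37 °C) after cells, plated overnight, were treated with compounds for 3 h at 37 °C. Signal corrected for cell-free medium background and expressed relative to DMSO control mean.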

SUDHL5 cells = assay: Induction of cytotoxicity in SUDHL5 cells (Assay 6); type: cell-based; settings: 5 h, CellTiter-Glo, read-out: Cytotox SUDHL5 IC50 (median)
Procedure, shortened: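 Run alongside apoptosis measurements, this cytotoxicity readout used cells treated with compound for 5 h at 37 °C and quantified ATP-based luminescence with CellTiter-Glo.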

HMC-1-8 cells = assay: Antiproliferation assay HMC-1-8 (Assay 7); type: cell-based
Procedure, shortened: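 Luminescent viability signal (CellTiter-Glo) after 72 h of treatment served as read-out. IC50 values were derived with day 0 luminescence as CI and DMSO wells as C0.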

[1] = Homo sapiens, SU-DHL10, 3 h, read-out: Caspase SUDHL10 EC50 (median), caspase-3/7 induction, 3 h
[2] = 72 h, read-out: Antiproli HMC-1-8 IC50 median, 72 h, CellTiter-Glo
[3] = Homo sapiens, SU-DHL10, 3 h, caspase-3/7 induction, 3 h, read-out: Caspase SUDHL10 EC50 (median)
[4] = 72 h, CellTiter-Glo, read-out: Antiproli HMC-1-8 IC50 median
[5] = caspase-3/7 induction, 3 h, read-out: Caspase SUDHL10 EC50 (median)
[6] = 72 h, CellTiter-Glo; read-out: Antiproli HMC-1-8 IC50 median

Chain of BCL-2 (P10415 1-211): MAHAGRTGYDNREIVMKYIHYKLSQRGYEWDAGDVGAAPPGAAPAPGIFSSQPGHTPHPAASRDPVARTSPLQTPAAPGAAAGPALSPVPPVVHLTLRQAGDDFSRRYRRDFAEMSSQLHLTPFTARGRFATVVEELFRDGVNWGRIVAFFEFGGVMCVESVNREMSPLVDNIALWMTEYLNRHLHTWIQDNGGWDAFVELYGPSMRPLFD

SMILES | IC50 (BCL-2) | EC50 (SUDHL10 cells; [1]) | IC50 (SUDHL5 cells; Homo sapiens, SU-DHL-5, 5 h) | IC50 (HMC-1-8 cells; [2]) | EC50 (SUDHL10 cells; [3]) | IC50 (HMC-1-8 cells; [4]) | EC50 (SUDHL10 cells; [5]) | IC50 (SUDHL5 cells) | IC50 (HMC-1-8 cells; [6]) | EC50 (SUDHL10 cells; read-out: Caspase SUDHL10 EC50 (median), caspase-3/7 induction, 3 h) | IC50 (HMC-1-8 cells; read-out: Antiproli HMC-1-8 IC50 median; 72 h, CellTiter-Glo)
Cc1c2c(nn1C)C(CCN1CCOCC1)OCCCCn1c(C(=O)O)c(CCCOc3cccc4cc(F)ccc34)c3ccc(F)c-2c31 (single isomer, unassigned; enantiomer 1) [Example 20, 4-fluoro-7-{3-[(6-fluoronaphthalen-1-yl)oxy]propyl}-2,3-dimethyl-15-[2-(morpholin-4-yl)ethyl]-2,10,11,12,13,15-hexahydropyrazolo[4′,3′:9,10][1,6]oxazacycloundecino[8,7,6-hi]indole-8-carboxylic Acid—N-ethylethanamine (Enantiomer 1)] | > 20000 nM | 32 nM | 33 nM | 460 nM |  |  |  |  |  |  | 
CCc1c2c(nn1C)C(CCC(C)(C)O)OCCCCn1c(C(=O)O)c(CCCOc3cccc4cc(F)ccc34)c3ccc(Cl)c-2c31 (racemic) [Example 74, (rac)-4-chloro-3-ethyl-7-{3-[(6-fluoronaphthalen-1-yl)oxy]propyl}-(15-rac)-(3-hydroxy-3-methylbutyl)-2-methyl-2,10,11,12,13,15-hexahydropyrazolo[4′,3′:9,10][1,6]oxazacycloundecino[8,7,6-hi]indole-8-carboxylic Acid] | 19600 nM |  | 51 nM |  | 33 nM | 397 nM |  |  |  |  | 
CCc1c2c(nn1C)C(CCN1CCOCC1)OCCCCn1c(C(=O)O)c(CCCOc3cccc4cc(F)ccc34)c3ccc(F)c-2c31 (single isomer, unassigned; enantiomer 1) [Example 50, (+)-3-ethyl-4-fluoro-7-{3-[(6-fluoronaphthalen-1-yl)oxy]propyl}-2-methyl-15-[2-(morpholin-4-yl)ethyl]-2,10,11,12,13,15-hexahydropyrazolo[4′,3′:9,10][1,6]oxazacycloundecino[8,7,6-hi]indole-8-carboxylic Acid (Enantiomer 1)] | > 20000 nM |  |  |  |  |  | 26 nM | 16 nM | 392 nM |  | 
Cc1c2c(nn1C)C(CCN1CCOCC1)OCCCCn1c(C(=O)O)c(CCCOc3cccc4ccccc34)c3ccc(Cl)c-2c31 (single isomer, unassigned; enantiomer 1) [Example 14, 4-chloro-2,3-dimethyl-15-[2-(morpholin-4-yl)ethyl]-7-{3-[(naphthalen-1-yl)oxy]propyl}-2,10,11,12,13,15-hexahydropyrazolo[4′,3′:9,10][1,6]oxazacycloundecino[8,7,6-hi]indole-8-carboxylic Acid (Enantiomer 1)] | > 20000 nM |  |  |  |  | 381 nM | 31 nM | 23 nM |  |  | 
CCc1c2c(nn1C)C(CC(C)(C)O)OCCCCn1c(C(=O)O)c(CCCOc3cccc4cc(F)ccc34)c3ccc(Cl)c-2c31 (racemic) [Example 52, (rac)-4-chloro-3-ethyl-7-{3-[(6-fluoronaphthalen-1-yl)oxy]propyl}-(15-rac)-(2-hydroxy-2-methylpropyl)-2-methyl-2,10,11,12,13,15-hexahydropyrazolo[4′,3′:9,10][1,6]oxazacycloundecino[8,7,6-hi]indole-8-carboxylic Acid] | 15900 nM |  | 380 nM |  | 160 nM | 3190 nM |  |  |  |  | 
CCc1c2c(nn1C)C(CCN1CCOCC1)OCCCCn1c(C(=O)O)c(CCCOc3cccc4cc(F)ccc34)c3ccc(F)c-2c31 (racemic) [Example 49, (rac)-3-Ethyl-4-fluoro-7-{3-[(6-fluoronaphthalen-1-yl)oxy]propyl}-2-methyl-(15-rac)-[2-(morpholin-4-yl)ethyl]-2,10,11,12,13,15-hexahydropyrazolo[4′,3′:9,10][1,6]oxazacycloundecino[8,7,6-hi]indole-8-carboxylic Acid] | > 20000 nM |  | 34 nM |  | 21 nM | 1060 nM |  |  |  |  | 
Cc1c2c(nn1C)C(C1CC1)OCCCCn1c(C(=O)O)c(CCCOc3cccc4ccccc34)c3ccc(Cl)c-2c31 (racemic) [Example 28, (rac)-4-Chloro-15-cyclopropyl-2,3-dimethyl-7-{3-[(naphthalen-1-yl)oxy]propyl}-2,10,11,12,13,15-hexahydropyrazolo[4′,3′:9,10][1,6]oxazacycloundecino[8,7,6-hi]indole-8-carboxylic Acid] | > 20000 nM |  | 3000 nM |  | 7200 nM | 20800 nM |  |  |  |  | 
Cc1c2c(nn1C)C(CCN1CCOCC1)OCCCCn1c(C(=O)O)c(CCCOc3cccc4cc(F)ccc34)c3ccc(Cl)c-2c31 (single isomer, unassigned; enantiomer 1) [Example 17, 4-chloro-7-{3-[(6-fluoronaphthalen-1-yl)oxy]propyl}-2,3-dimethyl-15-[2-(morpholin-4-yl)ethyl]-2,10,11,12,13,15-hexahydropyrazolo[4′,3′:9,10][1,6]oxazacycloundecino[8,7,6-hi]indole-8-carboxylic Acid—N-ethylethanamine (Enantiomer 1)] | > 20000 nM | 9.7 nM | 11 nM | 201 nM |  |  |  |  |  |  | 
CCc1c2c(nn1C)C(CCN1CCOCC1)OCCCCn1c(C(=O)O)c(CCCOc3cccc4cc(F)ccc34)c3ccc(F)c-2c31 (single isomer, unassigned; enantiomer 2) [Example 51, (−)-3-ethyl-4-fluoro-7-{3-[(6-fluoronaphthalen-1-yl)oxy]propyl}-2-methyl-15-[2-(morpholin-4-yl)ethyl]-2,10,11,12,13,15-hexahydropyrazolo[4′,3′:9,10][1,6]oxazacycloundecino[8,7,6-hi]indole-8-carboxylic Acid (Enantiomer 2)] | > 20000 nM |  |  |  |  |  | 9800 nM | 3400 nM | 22000 nM |  | 
Cc1c2c(nn1C)C(CCO)OCCCCn1c(C(=O)O)c(CCCOc3cccc4ccccc34)c3ccc(Cl)c-2c31 (racemic) [Example 26, (rac)-4-chloro-15-(2-hydroxyethyl)-2,3-dimethyl-7-{3-[(naphthalen-1-yl)oxy]propyl}-2,10,11,12,13,15-hexahydropyrazolo[4′,3′:9,10][1,6]oxazacycloundecino[8,7,6-hi]indole-8-carboxylic Acid] | > 20000 nM |  | 400 nM |  | 980 nM | 6780 nM |  |  |  |  | 
CCc1c2c(nn1C)C(CCOC)OCCCCn1c(C(=O)O)c(CCCOc3cccc4cc(F)ccc34)c3ccc(Cl)c-2c31 (single isomer, unassigned; enantiomer 1) [Example 42, (+)-4-chloro-3-ethyl-7-{3-[(6-fluoronaphthalen-1-yl)oxy]propyl}-15-(2-methoxyethyl)-2-methyl-2,10,11,12,13,15-hexahydropyrazolo[4′,3′:9,10][1,6]oxazacycloundecino[8,7,6-hi]indole-8-carboxylic Acid—N-ethylethanamine Salt (Enantiomer 1)] | > 20000 nM |  |  |  |  |  |  | 55 nM |  | 52 nM | 1080 nM
